Experiments:
Test in all cases: Bliss excess, mean over the matrix (fraction); higher = more synergy
[1] = test system: COR-L279 (Small Cell Lung Carcinoma)
Outline: (§1)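 Cell lines grown in DMEM/F12 or RPMI with 10% FBS were plated in 1536-well plates and held 24 hours at 37°C, 5% CO2 before 72 hours of exposure to two-drug dose matrices, with DMSO typically at 0.2%. CellTiter-Glo 2.0 luminescence gave viability, which was converted to inhibition. Vehicle wells were set to 0 and blank wells to 1. Combination Emax is the second-highest inhibition in the matrix, and Bliss excess is the observed combination effect minus the expected EA + EB − EA·EB, where EA and EB are the single-agent effects.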

[2] = test system: CW-2 (Colorectal Carcinoma)
Outline: as §1

[3] = test system: DMS-114 (Small Cell Lung Carcinoma)
Outline: as §1

[4] = test system: KP-3 (Pancreatic Carcinoma)
Outline: as §1

[5] = test system: KU812 (Chronic Myelogenous Leukemia)
Outline: as §1

[6] = test system: KYSE-270 (Esophageal Squamous Cell Carcinoma)
Outline: as §1

[7] = test system: M059J (Glioblastoma)
Outline: as §1

[8] = test system: MN-60 (B-Lymphoblastic Leukemia)
Outline: as §1

[9] = test system: MOG-G-CCM (Low Grade Glioma)
Outline: as §1

[10] = test system: NCCIT (Other Solid Carcinomas)
Outline: as §1

[11] = test system: NCI-H2731 (Mesothelioma)
Outline: as §1

[12] = test system: NCI-H3122 (Lung Adenocarcinoma)
Outline: as §1

[13] = test system: NCI-H520 (Squamous Cell Lung Carcinoma)
Outline: as §1

[14] = test system: NCI-H526 (Small Cell Lung Carcinoma)
Outline: as §1

[15] = test system: NCI-H929 (Plasma Cell Myeloma)
Outline: as §1

[16] = test system: SJSA-1 (Osteosarcoma)
Outline: as §1

[17] = test system: SK-GT-4 (Esophageal Adenocarcinoma)
Outline: as §1

[18] = test system: ST486 (Burkitt's Lymphoma)
Outline: as §1

[19] = test system: T-T (Esophageal Squamous Cell Carcinoma)
Outline: as §1

[20] = test system: VMRC-RCZ (Kidney Carcinoma)
Outline: as §1

Row | Structure (SMILES) | Bliss excess [1] | Bliss excess [2] | Bliss excess [3] | Bliss excess [4] | Bliss excess [5] | Bliss excess [6] | Bliss excess [7] | Bliss excess [8] | Bliss excess [9] | Bliss excess [10] | Bliss excess [11] | Bliss excess [12] | Bliss excess [13] | Bliss excess [14] | Bliss excess [15] | Bliss excess [16] | Bliss excess [17] | Bliss excess [18] | Bliss excess [19] | Bliss excess [20]
1 | CS(=O)(=O)CCNCc1ccc(-c2ccc3ncnc(Nc4ccc(OCc5cccc(F)c5)c(Cl)c4)c3c2)o1 [Lapatinib] + NC1(c2ccc(-c3nc4ccn5c(=O)[nH]nc5c4cc3-c3ccccc3)cc2)CCC1 [MK-2206] (first compound max 10 µM, 7x7, partner max 10 µM) | 0.0229 | -0.0434 | 0.0721 | -0.0194 | -0.0194 | 0.0262 | -0.0047 | 0.0332 | -0.0681 | -0.0143 | 0.0201 | -0.0497 | 0.0011 | 0.0254 | -0.0278 | -0.0402 | 0.0402 | 0.0266 | -0.0168 | 0.0019
2 | C=CCn1c(=O)c2cnc(Nc3ccc(N4CCN(C)CC4)cc3)nc2n1-c1cccc(C(C)(C)O)n1 [AZD1775] + CCc1c2c(nc3ccc(O)cc13)-c1cc3c(c(=O)n1C2)COC(=O)[C@]3(O)CC [SN-38] (first compound max 1 µM, partner max 0.3 µM) | -0.0425 | -0.0515 | -0.0439 | -0.067 | -0.0318 | 0.0029 | 0.0051 | -0.0244 | -0.053 | -0.0342 | -0.0744 | -0.0233 | -0.0637 | -0.0476 | -0.0303 | -0.0742 | 0.0211 | -0.0359 | -0.031 | -0.0623
3 | C[C@@H](Nc1cc(F)cc(F)c1)c1cc(C(=O)N(C)C)cc2c(=O)cc(N3CCOCC3)oc12 [AZD8186] + CC(=O)c1c(C)c2cnc(Nc3ccc(N4CCNCC4)cn3)nc2n(C2CCCC2)c1=O [Palbociclib] (first compound max 10 µM, 7x7, partner max 10 µM) | 0.147 | 0.0464 | 0.0178 | 0.0123 | 0.0412 | -0.0036 | -0.006 | -0.0082 | 0.0077 | 0.0183 | -0.0036 | 0.0528 | 0.111 | -0.0207 | -0.0272 | -0.0268 | -0.0649 | 0.0478 | 0.0135 | 0.12
4 | CN(CCO)CC[C@H](CSc1ccccc1)Nc1ccc(S(=O)(=O)NC(=O)c2ccc(N3CCC([C@@H](O)c4ccccc4-c4ccc(Cl)cc4)CC3)cc2)cc1S(=O)(=O)C(F)(F)F [AZD4320] + CC(=O)O[C@H]1C(=O)[C@@]2(C)[C@H]([C@H](OC(=O)c3ccccc3)[C@]3(O)C[C@H](OC(=O)[C@H](O)[C@@H](NC(=O)c4ccccc4)c4ccccc4)C(C)=C1C3(C)C)[C@]1(OC(C)=O)CO[C@@H]1C[C@@H]2O [Paclitaxel] (first compound max 1 µM, 7x7, partner max 3 µM) | 0.0141 | -0.0328 | 0.0486 | 0.131 | -0.0252 | 0.0171 | 0.0756 | 0.0332 | 0.0506 | 0.0317 | 0.0876 | 0.0379 | 0.0142 | 0.0193 | -0.0687 | 0.0637 | 0.0543 | -0.0016 | 0.0528 | 0.128
5 | O=C(c1cc(Cc2n[nH]c(=O)c3ccccc23)ccc1F)N1CCN(C(=O)C2CC2)CC1 [Olaparib] + COc1nnc2ccc(N3CCC(c4ccc(OCCN5CCN(C)C(=O)[C@H]5C)cc4)CC3)nn12 [AZD5153] (first compound max 10 µM, 7x7, partner max 1 µM) | 0.0327 | -0.0592 | -0.13 | -0.0554 | -0.0778 | 0.0235 | -0.0672 | -0.0721 | -0.0569 | -0.0739 | -0.0208 | -0.0021 | -0.0134 | -0.0689 | -0.0516 | -0.0323 | -0.0894 | -0.0433 | -0.0283 | -0.0243
6 | N#Cc1cnc(Nc2cc(NC[C@H]3CNCCO3)c(C(F)(F)F)cn2)cn1 [SRA737] + O=c1[nH]cc(F)c(=O)[nH]1 [5-Fluorouracil] (first compound max 10 µM, 7x7, partner max 20 µM) | 0.077 | 0.0039 | -0.0757 |  | -0.0726 | 0.127 | 0.0052 | -0.0751 | -0.001 | -0.0561 | -0.0374 | 0.0315 | -0.0306 | 0.0854 | 0.0184 | 0.0126 | -0.0187 | 0.0098 | 0.0483 | -0.0163
7 | Cc1nc(-c2cn3c(n2)-c2ccc(-c4cnn(C(C)(C)C(N)=O)c4)cc2OCC3)n(C(C)C)n1 [Taselisib] + O=C(Nc1ccc2[nH]nc(-c3ccncc3)c2c1)[C@@H]1CCN(CC(=O)N2CCN(c3ccc(-c4ncccn4)cc3)CC2)C1 [SCH772984] (first compound max 10 µM, 7x7, partner max 5 µM) | 0.0833 | 0.0458 | 0.005 | 0.0368 | 0.0569 | 0.0577 | 0.0027 | -0.026 | -0.0727 | -0.032 | 0.0323 | 0.126 | 0.0461 | 0.0117 | 0.0344 | 0.0019 | 0.0428 | 0.0569 | 0.133 | 0.0004

Source: the supplement of paper PMC11061612
